Counter-ions that a name gives are not always drawn.
Columns and labels:
iCell Cardiomyocytes2 = test: Ca2+-fluorescence assay in human pluripotent stem cell-derived cardiomyocytes (CTCM human), iCell Cardiomyocytes2; format: cell-based; set-up: key: Green: No concern; Yellow: Low concern; Red: High concern; Black: Very high concern due to arrhythmic events; conditions: 30 min; for Color @ 0.1 μM (hazard score): iCell Cardiomyocytes2, 0.1 μM; for Color @ 1 μM (hazard score): iCell Cardiomyocytes2, 1 μM
Protocol: (§1) 7) Cardio-Electrophysiological Effects of the Testing Compounds in Synchronously Beating Human Pluripotent Stem Cell-Derived Cardiomyocytes (hSC-CMs) Using a Ca^2+-Fluorescence Assay (CTCM Human)
(§2) Compounds were tested in the 96-well plates
Compounds were tested at 0.1 μM, 0.2 μM, 0.5 μM, 1 μM, 2.5 μM and 5 μM (n=4 per dose) on Cor.4U 9-Cardiomyocytes or on iCell® Cardiomyocytes2
Alternatively, compounds were tested at 0.1 μM, 0.3 μM; 1 μM, 3 μM, 10 μM and 30 μM (n=4 per dose) mostly on iCell® Cardiomyocytes2
(§3) Dimethylsulfoxide (DMSO). The solutions of the compound in DMSO or its solvent (final concentration of 0.1% DMSO; n=8)
(§4) Preparation of Test Article and Controls
(§5) Tested compounds were dissolved in DMSO at 1000-fold the intended concentrations. A compound “mother-plate” was made, containing the test compounds and positive and negative controls at 1000-fold the final concentrations. At the experiment day, these stock solutions were diluted with Tyrode (Sigma), supplemented with 10 mM HEPES (Gibco), to 2-fold the intended concentration (in round bottom compound plates). Final DMSO concentration in test solutions and vehicle control was 0.1%.
Second line hSC derived cardiomyocyte called iCell®, Cardiomyocytes2 were purchased from FUJIFILM Cellular Dynamics (USA). The experiments with test drugs are carried out 5 to 7 days after plating the cells onto the plate to have a living, beating monolayer of hiPSC-derived cardiomyocytes. The beating monolayer in 96-well-plates are normally taken from 2 Vials of frozen iCell) Cardiomyocytes2 (≈5 million cells/vial), which will be plated onto […] 96-well plates (≈50K/well).
(§6) Before Start of Experiment
(§7) At least one hour before the start of the experiments the normal cell medium was replaced with Tyrode solution with Calcium dye (see below).
(§8) Cal 520 dye (AAT Bioquest) was dissolved in 11 ml of Tyrode supplemented with 10 mM HEPES and warmed up to 37° C. before adding to the cells.
(§9) 35 μl cell culture medium was removed from each well and replaced with 35 μl of pre-warmed Cal 520 dye solution and cell plate was incubated for 45 min at 37° C./5% CO2. Cells were incubated for 5 min at 37° C.
(§10) Spontaneous electrical activity is recorded, using Cal520™ (AAT Bioquest) calcium fluorescence-dye signaling. This dye integrates the total intracellular calcium activity over the whole well. A bottle of Cal520 dye (50 μg, MW: 1103/mol) is dissolved with 50 μl DMSO as a stock solution of 0.9 mM. 50 μL of the stock solution of the dye was added to 10 ml Tryodes solution to have dye concentration of 4.5 μM. Subsequently, 35 μl of this dye solution was added into each well, to have a final dye concentration of 1.58 μM. The current dye protocol on this CTCM human assay was established recently (Ivan Kopljar et al, Journal of Pharmacological and toxicological methods 2018. 91: 80-86; Lu et al., Tox Sci 2019. 170 (2): 345-356).
(§11) Fluorescent signals (Ca^2+ transient morphology) were measured using the Functional Drug Screen System (FDSS/μCell; Hamamatsu, Japan) and the recordings were subsequently analyzed off-line, using appropriate software e.g. Notocord.
(§12) The cell plate was loaded into the FDSS/μCell for a test run: Ca^2+ transients were measured for 4 minutes to check for synchronous beating of the cardiomyocytes in each well. All 96 wells were measured simultaneously (sampling interval: 0.06 s, short exposure time: 10 ms; excitation wavelength 480 nm; emission wavelength 540 nm; FDSS/μCell warmed to 37° C.).
(§13) During the compound addition step, 100 μl of the respective double-concentrated test solutions was pipetted into each well simultaneously.
(§14) Data were analyzed off-line using appropriate software e.g. Notocord-Hem (version 4.3).
The following parameters of the Ca^2′ transient morphology were measured: • beat rate (BR) • amplitude of the Ca^2+ transient (Amp), • CTD90: Ca^2+ transient duration at 90% (time to 90% of the initial base value). […]

[1] = biological target: hERG potassium channel (IKr) (Homo sapiens (Human), UniProt Q12809); test: Effect on membrane potassium current IKr in hERG transfected CHO cells, Protocol 1 (QPatch); format: cell-based; conditions: human, CHO cells stably expressing the hERG potassium channel, pH 7.4
In short: (§15)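 Whole-cell automated patch clamp on CHO cells stably expressing hERG, held at −80 mV; the value is the tail current at −40 mV after a 2 s step to +60 mV, at pH 7.4 bath and pH 7.2 pipette. After 0.3% DMSO control, compound was applied at 3×10^−7 M, 3×10^−6 M, 10^−5 M and 3×10^−5 M, 5 min each. IC50 comes from a non-linear least-squares fit of block versus vehicle.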

Cor.4U Cardiomyocytes = test: Ca2+-fluorescence assay in human pluripotent stem cell-derived cardiomyocytes (CTCM human), Cor.4U Cardiomyocytes; format: cell-based; set-up: key: Green: No concern; Yellow: Low concern; Red: High concern; Black: Very high concern due to arrhythmic events; conditions: 30 min
Protocol: as §1, §2
Compounds were tested at 0.1 μM, 0.2 μM, 0.5 μM, 1 μM, 2.5 μM and 5 μM (n=4 per dose) on Cor.4U 9-Cardiomyocytes or on iCell® Cardiomyocytes2 […]
as §3, §4, §5
hSC-CMs (Cor.4U® Cardiomyocytes) were obtained from CDI (Ncardia, Germany). Cells are pre-plated and seeded in fibronectin-coated 96-well plates at a density suited to form a monolayer and maintained in culture in a stage incubator (37° C., 5% CO2), according to the instructions of the cell provider.
as §6, §7, §8, §9, §10, §11, §12, §13, §14
The following parameters of the Ca^2′ transient morphology were measured: • beat rate (BR) • amplitude of the Ca^2+ transient (Amp), • CTD90: Ca^2+ transient duration at 90% (time to 90% of the initial base value).
The presence of various ‘arrhythmia-like’ activities were also noted during the experimental periods. […]

OCI-AML3 cells = test: Proliferation assay (spheroid growth, 8 days), OCI-AML3; format: cell-based, human; conditions: OCI-AML3, 8 days, hydrochloride
In short: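 8-day spheroid growth in ultra-low attachment plates; seeding 200 cells (MOLM14, OCI-AML3) or 300 (KO-52); DMSO 0.3%. Day-8 imaging, confluence vs DMSO (0%) and top reference dose (baseline); IC50 by variable-slope fit.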

hERG potassium channel = hERG potassium channel (Homo sapiens (Human), UniProt Q12809); test: Effect on membrane potassium current IKr in hERG transfected CHO cells, Protocol 1 (QPatch); format: cell-based
In short: as §15

MOLM14 cells = test: Proliferation assay (spheroid growth, 8 days), MOLM14; format: cell-based, human; conditions: MOLM14, 8 days; hydrochloride; read-out: spheroid assay_OneTime MOLM14 IC50;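 note: spheroid size read as confluence by live-cell imaging, compounds added at a range of concentrations with 0.3% DMSO, DMSO-treated wells = 0%, highest reference dose = low control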
OCI-AML3 tumors = test: Efficacy study in disseminated OCI-AML3 model (survival); format: in vivo, mouse; conditions: disseminated OCI-AML3, SCID beige mice, vehicle 38.5 days

hERG potassium channel (IKr), sequence (Q12809 whole entry): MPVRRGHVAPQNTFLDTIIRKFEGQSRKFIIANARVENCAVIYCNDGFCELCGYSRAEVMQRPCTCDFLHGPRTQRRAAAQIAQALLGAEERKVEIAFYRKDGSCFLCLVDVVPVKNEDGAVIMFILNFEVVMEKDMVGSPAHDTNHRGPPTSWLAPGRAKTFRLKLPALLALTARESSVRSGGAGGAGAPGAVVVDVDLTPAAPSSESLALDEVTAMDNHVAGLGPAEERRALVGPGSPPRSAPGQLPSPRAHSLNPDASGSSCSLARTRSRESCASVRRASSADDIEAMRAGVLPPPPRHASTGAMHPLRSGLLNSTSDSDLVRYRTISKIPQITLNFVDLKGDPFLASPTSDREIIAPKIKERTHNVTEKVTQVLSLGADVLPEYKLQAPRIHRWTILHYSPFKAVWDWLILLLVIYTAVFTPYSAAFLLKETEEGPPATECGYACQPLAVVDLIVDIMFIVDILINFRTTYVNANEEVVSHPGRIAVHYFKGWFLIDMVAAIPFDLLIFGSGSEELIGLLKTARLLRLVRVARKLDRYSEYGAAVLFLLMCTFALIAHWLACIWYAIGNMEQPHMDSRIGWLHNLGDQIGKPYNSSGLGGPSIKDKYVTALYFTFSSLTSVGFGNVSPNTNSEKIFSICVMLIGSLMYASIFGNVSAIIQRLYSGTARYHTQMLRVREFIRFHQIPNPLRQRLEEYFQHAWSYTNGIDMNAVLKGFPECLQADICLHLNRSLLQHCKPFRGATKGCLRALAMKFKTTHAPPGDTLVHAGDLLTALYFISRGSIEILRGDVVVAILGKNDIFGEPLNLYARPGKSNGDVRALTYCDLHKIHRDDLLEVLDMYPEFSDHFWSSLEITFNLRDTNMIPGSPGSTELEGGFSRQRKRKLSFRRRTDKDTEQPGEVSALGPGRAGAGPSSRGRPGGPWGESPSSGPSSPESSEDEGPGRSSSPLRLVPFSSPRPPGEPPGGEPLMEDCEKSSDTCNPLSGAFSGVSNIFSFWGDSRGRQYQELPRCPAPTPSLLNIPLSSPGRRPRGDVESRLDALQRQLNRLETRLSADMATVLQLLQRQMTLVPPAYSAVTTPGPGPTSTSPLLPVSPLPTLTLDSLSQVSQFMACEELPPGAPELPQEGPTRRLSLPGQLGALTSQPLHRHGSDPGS
hERG potassium channel, sequence (Q12809 whole entry): as above

CCN(C(=O)c1cc(F)ccc1Oc1nncnc1N1CCC2(C1)CN([C@H](CCCNCCOC)C(C)C)C2)C(C)C [Compound 11, (R)-N-ethyl-5-fluoro-N-isopropyl-2-((5-(2-(6-((2-methoxyethyl)amino)-2-methylhexan-3-yl)-2,6-diazaspiro[3.4]octan-6-yl)-1,2,4-triazin-6-yl)oxy)benzamide]
Color @ 0.1 μM (hazard score) (iCell Cardiomyocytes2; range 0.1-30 μM): Green | Color @ 0.3 μM (hazard score) (iCell Cardiomyocytes2; iCell Cardiomyocytes2, 0.3 μM): Green | Color @ 1 μM (hazard score) (iCell Cardiomyocytes2; range 0.1-30 μM): Green | Color @ 3 μM (hazard score) (iCell Cardiomyocytes2; iCell Cardiomyocytes2, 3 μM): Green | Color @ 10 μM (hazard score) (iCell Cardiomyocytes2; iCell Cardiomyocytes2, 10 μM): Green | Color @ 30 μM (hazard score) (iCell Cardiomyocytes2; iCell Cardiomyocytes2, 30 μM): Green | IC50 at 5 min [1]: > 30.2 µM

CCN(C(=O)c1cc(F)ccc1Oc1nncnc1N1CCC2(C1)CN([C@H](CCCNC)C(C)C)C2)C(C)C [Compound 19, (R)-N-ethyl-5-fluoro-N-isopropyl-2-((5-(2-(2-methyl-6-(methylamino)hexan-3-yl)-2,6-diazaspiro[3.4]octan-6-yl)-1,2,4-triazin-6-yl)oxy)benzamide hydrochloride]
Color @ 0.1 μM (hazard score) (Cor.4U Cardiomyocytes; 0.1 μM): Green | Color @ 0.2 μM (hazard score) (Cor.4U Cardiomyocytes; 0.2 μM): Green | Color @ 0.5 μM (hazard score) (Cor.4U Cardiomyocytes; 0.5 μM): Green | Color @ 1 μM (hazard score) (Cor.4U Cardiomyocytes; 1 μM): Green | Color @ 2.5 μM (hazard score) (Cor.4U Cardiomyocytes; 2.5 μM): Green | Color @ 5 μM (hazard score) (Cor.4U Cardiomyocytes; 5 μM): Green | IC50 (OCI-AML3 cells): 160 nM | IC50 (hERG potassium channel): > 30.2 µM | IC50 (MOLM14 cells): 58 nM

CCN(C(=O)c1cc(F)ccc1Oc1nncnc1N1CCC2(C1)CN([C@H](CCCN(C)CCOC)C(C)C)C2)C(C)C [Compound 70, (R)-N-ethyl-5-fluoro-N-isopropyl-2-((5-(2-(6-((2-methoxyethyl)(methyl)amino)-2-methylhexan-3-yl)-2,6-diazaspiro[3.4]octan-6-yl)-1,2,4-triazin-6-yl)oxy)benzamide oxalate]
Color @ 0.1 μM (hazard score) (iCell Cardiomyocytes2): Green | Color @ 0.2 μM (hazard score) (iCell Cardiomyocytes2; iCell Cardiomyocytes2, 0.2 μM): Green | Color @ 0.5 μM (hazard score) (iCell Cardiomyocytes2; iCell Cardiomyocytes2, 0.5 μM): Green | Color @ 1 μM (hazard score) (iCell Cardiomyocytes2): Green | Color @ 2.5 μM (hazard score) (iCell Cardiomyocytes2; iCell Cardiomyocytes2, 2.5 μM): Green | Color @ 5 μM (hazard score) (iCell Cardiomyocytes2; iCell Cardiomyocytes2, 5 μM): Green | median days of survival (OCI-AML3 tumors; 30 mg/kg PO daily for 28 days): 75.5 days | median days of survival (OCI-AML3 tumors; 50 mg/kg PO daily for 28 days): 58.5 days

Reference: patent US12473295B2, “Substituted straight chain spiro derivatives” (Janssen Pharmaceutica NV, priority 2019, dated 2025)
